Measurements taken from patent US8066985B2, “Reovirus for the treatment of cellular proliferative disorders” (Oncolytics Biotech Inc., priority 1999, dated 2011).
“Also recorded” adds a separate entry of the source.

Experiments:
[1] = test system: NIH 3T3 cells; assay: 2-aminopurine effect on viral protein synthesis; format: cell-based, mouse; conditions: 5 mM, concurrently with reovirus; label 12 to 48 h postinfection
Method: To test this idea, 2-aminopurine was used. […] Accordingly, NIH 3T3 cells were exposed to 5 mM 2-aminopurine concurrently with exposure to reovirus. The cells were labeled with [^35S]methionine from 12 to 48 h postinfection, and lysates were harvested and analyzed by SDS-PAGE.

[2] = test system: H-Ras-transformed cells; assay: PD98059 effect on reovirus protein synthesis; format: cell-based; conditions: 50 μM, MOI approximately 10 p.f.u./cell, label 12 to 48 hours
Method: (§1) H-Ras-transformed cells were grown to 80% confluency and infected with reovirus at an MOI of approximately 10 p.f.u./cell. PD98059 (Calbiochem), dissolved in dimethylsulfoxide (DMSO), was applied to the cells at the same time as the virus (final concentration of PD98059 was 50 μM). The control cells received an equivalent volume of DMSO. The cells were labeled with ^35S-methionine from 12 to 48 hours post-infection. Lysates were then prepared, immunoprecipitated with the polyclonal anti-reovirus serotype 3 serum and analyzed by SDS-PAGE.

[3] = test system: ERK1/2 phosphorylation; assay: PD98059 effect on ERK1/2 phosphorylation; format: cell-based; conditions: 50 μM
Source text: The PhosphoPlus p44/42 MAP kinase (Thr202/Tyr204) Antibody kit (New England Biolabs) was used for the detection of MAP kinase in cell lysates according to the manufacturer's instructions. Briefly, subconfluent monolayer cultures were lysed with the recommended SDS-containing sample buffer, and subjected to SDS-PAGE, followed by electroblotting onto nitrocellulose paper. The membrane was then probed with the primary antibody (anti-total MAPK or anti-phospho-MAPK), followed by the horseradish peroxidase (HRP)-conjugated secondary antibody as described in the manufacturer's instruction manual.
as §1
As expected, PD98059 had no effect on reovirus-induced PKR phosphorylation in untransformed NIH-3T3 cells (data not shown).

[4] = test system: PKR; assay: PD98059 effect on PKR phosphorylation; format: cell-based

| SMILES | level of viral protein synthesis [1] | effect on viral protein synthesis [2] | inhibition of reovirus protein synthesis [2] | ERK1/2 phosphorylation [3] | PKR phosphorylation state ([4]; infected H-Ras-transformed cells, 50 μM) | effect on reovirus-induced PKR phosphorylation ([4]; untransformed NIH-3T3 cells) |
| --- | --- | --- | --- | --- | --- | --- |
| Nc1ncc2[nH]cnc2n1 [2-aminopurine] | significantly higher level of viral protein synthesis; also recorded: drastic enhancement of reovirus protein synthesis |  |  |  |  |  |
| COc1cccc(-c2cc(=O)c3ccccc3o2)c1N [PD98059] |  | slight enhancement of viral protein synthesis | did not inhibit reovirus protein synthesis | effectively inhibited ERK1/2 phosphorylation | remained unphosphorylated | no effect |
